This is an account of results in patent US20260027179A1, “ANTI-SYNUCLEINOPATHY PEPTIDE AND METHODS TO TREAT NEURODEGENERATIVE DISEASES” (University of British Columbia, priority 2021, published 2026).

Assay [1] addresses T1, purified recombinant human α-synuclein (Homo sapiens, UniProt P37840).
T1 construct: His (histidine tag) (N); purchased Sigma S7820-500UG
Briefly: Biacore peptide-protein binding assay. The note with it: 0.20-12.50 μM peptide, report point 20 seconds into dissociation. On the procedure:
Biacore experiments were performed using a Biacore 3000 instrument (GE Healthcare Biosciences, Upsala, Sweden) and HBS running buffer, pH 7.4, containing 10 mM HEPES, 150 mM NaCl, 3 mM EDTA, and 0.005% surfactant P20. A research-grade CM5 sensor chip was activated with a mixture containing equal molar amounts of EDC (N-ethyl-N′-(dimethylaminopropyl) carbodiide and NHS (N-hydroxysuccinimide). Purified recombinant human α-synuclein (N-terminal histidine tagged, Sigma, S7820-500UG), diluted in sodium acetate pH 3.1, was then injected and covalently coupled to a flow cell of the sensor chip surface by amide bonding. Residual unreacted sites were blocked with ethanolamine. A reference surface, to account for non-specific binding, was similarly generated by activating and blocking an adjacent flow cell. Approximately 1500 resonance units (RU), equivalent to a surface concentration of 1500 pg/mm^2 of α-synuclein, was immobilized.
To ascertain the binding interaction between α-synuclein knockdown peptides and α-synuclein, synthetic Tat-βsyn-degron peptide or control tat peptide was serially diluted and sequentially injected over the active surface containing immobilized α-synuclein and the reference surface for 3 minutes at a flow rate of 30 μl/minute. The peptides were then allowed to dissociate for 3 minutes during which time HBS running buffer was injected. The resultant sensorgrams were double-referenced by subtracting out the binding on the reference surface and the response from the HBS blank buffer control. Binding response report points were collected 20 seconds into the dissociation phase of the interaction at time 200 seconds, which represents a stable binding response and excludes bulk refractive index changes and nonspecific binding.
In general terms: SPR reads the build-up and loss of mass on a sensor chip optically.

Assay [2] relates to β2/3 subunit of the GABAA receptor. Kind of assay: GABAA receptor β2/3 subunit level in cortical cultures, immunoblot. The following applies: 50 μM, 24 hrs. The class given is cell-based, rat. On the procedure: (§1) Primary rat neuron cultures were prepared from embryos of pregnant Sprague-Dawley rats (E18). The experimental protocol was approved by the University of British Columbia Animal Care Committee. Briefly, the cortical tissue or ventral midbrain tissue was isolated into ice cold HBSS (Invitrogen, 14170-112) and then digested with 0.25% trypsin-EDTA at 37° C. for 30 min. After washing with warm DMEM (supplemented with 10% FBS) three times, neurons were suspended in neuron culture media and dissociated by trituration using varying sizes of pipettes. Neurons were then centrifuged, and the pellet was re-suspended in culture media, washed twice with culture media, and plated on the poly-D-lysine-coated plates. Neuron culture was maintained in the 37° C. incubator with 95% O2 and 5% CO2. The morning after culturing, 2/3 of the neuron culture media was replaced with fresh neuron culture media. Media was then replaced every 3-4 days. […]
(§2) Brain tissues or cultured cells were lysed on ice in the lysis buffer and then the solution was centrifuged at 14,000 rpm for 10 min at 4° C. Next, the supernatant was collected and protein concentrations were determined using a BCA protein assay kit (Thermo Scientific, 23227). […] The band density of each protein was quantified by the Bio-Rad Quantity One software and the relative optical density was analyzed relative to the loading control β-actin on the same membrane.

Another assay concerns HSP90. Kind of assay: HSP90 level in cortical cultures, immunoblot. The format is cell-based, rat. The note with it: 50 μM, 24 hrs. On the procedure:
as §1, §2
On the technique in general: A western blot detects proteins with antibodies after separation by electrophoresis.

For another assay, the system named is dopaminergic neurons. Kind of assay: MPTP mouse model, dopaminergic neuronal damage (TH immunoblotting, TH immunohistochemistry). The note with it: peptide 6 μmol/kg i.p. twice a day for 12 days. The class given is in vivo. On the procedure:
C57BL/6 mice were i.p. injected with 30 mg/kg parkinsonian toxin MPTP (or saline as control), once per day for 5 consecutive days, to induce dopaminergic neuron damage. The effects of MPTP administration on mouse rotarod performance and damage to dopaminergic neurons were then analyzed 1 week after the last injection of MPTP. To determine the effect of α-synuclein knockdown in protecting dopaminergic neurons against MPTP, the Tat-βsyn-degron peptide or its control Tat-βsyn (6 μmol/kg; i.p.) was used in some animals twice a day for 12 days, beginning the first day of MPTP injection. […] The striatum is a region that receives dopaminergic neuronal projections from the substantia nigra and is also deeply affected in PD. Consistent with the specific neurotoxic effects of MPTP on dopaminergic neurons, in mice receiving MPTP injection alone there was a significant loss of protein TH in both dopaminergic neurons in the substantia nigra-containing ventral midbrain (FIGS. 6a and 6c) and dopaminergic neuronal terminals in the striatum (FIGS. 6d and 6f). […] As expected, the specific knockdown of α-synuclein by Tat-βsyn-degron protected against MPTP-induced dopaminergic neuronal injury (FIGS. 6c and 6f).
C57BL/6 mice (20-25 g) received intraperitoneal (i.p.) injection of 30 mg/kg parkinsonian toxin MPTP hydrochloride once a day for 5 days to induce dopaminergic neuron death in the substantia nigra, while the control mice received equal volumes of saline injection. 6 μmol/kg Tat-βsyn-degron peptide or control Tat-βsyn peptide was i.p. injected into the MPTP-treated mice every 12 hrs from the first day of MPTP injection until 7 days after the last injection of MPTP. All groups of mice then underwent a rotarod test before they were sacrificed.
Brain tissues or cultured cells were lysed on ice in the lysis buffer and then the solution was centrifuged at 14,000 rpm for 10 min at 4° C. Next, the supernatant was collected and protein concentrations were determined using a BCA protein assay kit (Thermo Scientific, 23227). Equal amount of protein samples was mixed with 4× sample buffer, boiled at 100° C. for 5 min, and separated on 10% sodium dodecyl sulphate-polyacrylamide gel electrophoresis (SDS-PAGE). Proteins were then transferred to Immobilon-PTM polyvinylidene fluoride (PVDF) membranes (Bio-Rad, 162-0177). The membranes were blocked with 5% non-fat milk in Tris-buffered saline containing 0.1% Tween-20 (TBST) for 1 hr at room temperature, and then incubated overnight at 4° C. with primary antibody. After washing 3×5 min in TBST, membranes were incubated with horseradish peroxidase-conjugated secondary antibody for 1 hr at room temperature. After another three washes with TBST, protein was visualized in the Bio-Rad Imager using ECL western blotting substrate (Pierce, 32016). The band density of each protein was quantified by the Bio-Rad Quantity One software and the relative optical density was analyzed relative to the loading control β-actin on the same membrane.
C57BL/6 mice were anesthetized with 1.5 g/kg urethane (Sigma, U2500) and then perfused with 0.9% saline and 4% paraformaldehyde. Brains were removed and fixed in 4% paraformaldehyde for 24 hrs before being transferred to 30% sucrose/PBS solution for cryoprotection. The brains were then sectioned into 30 μm slices using a Leica cryostat. After blocking and permeabilization using a PBS solution containing 1% BSA and 0.2% Triton X-100 for 30 min at room temperature, the brain slices were incubated with anti-TH antibody (1:800 dilution) for 3 days at 4° C. Finally, the TH-positive neurons in the substantia nigra and TH-positive neuronal terminals in the striatum were stained using the anti-mouse Ig HRP detection kit (BD Transduction Laboratories, 551011) according to manufacturer's instruction, and visualized under Zeiss Axio Observer D1 microscope. […]

Setting [3] is: MPTP 30 mg/kg x5 days, immunoblot.

With “YGRKKRRQRRRRTKSGVYLVGRRRG (The sequence is synthesized (YGRKKRRQRRRRTKSGVYLVGRRRG)) [Tat-βsyn-degron]”, the “binding response to immobilized α-synuclein” value in assay [1] was “robust and similar binding”. Further, in assay [2], the “expression level of β2/3 subunit of the GABAA receptor” value is “did not affect the expression levels”. The “expression level of HSP90” value in the assay on HSP90 was “did not affect the expression levels”. For the same sequence, in the assay on dopaminergic neurons (setting [3]), the “TH protein level in striatum after MPTP” value is “protected against the MPTP-induced decrease in the level of TH protein” and the “TH protein level in ventral midbrain after MPTP” value is listed as “protected against the MPTP-induced decrease in the level of TH protein”. Moreover, in the assay on dopaminergic neurons, the “MPTP-induced dopaminergic neuronal damage (overall, FIG. 6 and FIG. 7a-d)” value is “largely protected”. Moreover, the “density of dopaminergic neuronal terminals in the striatum after MPTP” value in the assay on dopaminergic neurons (TH densitometry) is “protected against MPTP-induced decrease”. In addition, the “number of dopaminergic neurons in the substantia nigra pars compacta after MPTP” value in the assay with dopaminergic neurons (blinded TH neuron counting) is “protected against MPTP-induced decrease in the number of dopaminergic neurons”.
